Test systems include A549; ACHN; CCRF-CEM; DU-145; HCT-116; HCT-15; HOP-62; MDA-MB-231; MDA-MB-435; MOLT-4; NCI-H226; NCI-H23; NCI/ADR-RES; PC-3; SF-295; SNB-19; SNB-75; SR; SW-620; NCI-H522.
Common to all, as to test: NCI anticancer screen, dose series, 48 h

Molecules are shown by their SMILES.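 Briefly, cells in 96-well plates were exposed to five compound concentrations for 48 h, and endpoints were estimated by linear interpolation. The concentration for 50% growth inhibition is given as GI50.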 The source made the active and inactive calls. Cut-off read from the data, not from the text of the source: active = GI50 up to about 1.1 µM and inactive = higher. Bounds are passed on as bounds.

Regarding `CC1=CC[C@H](C[C@H](C#CCCCC2OCCO2)O[Si](C(C)C)(C(C)C)C(C)C)C(=O)CC1`, the GI50 in the assay with A549 was > 100 µM (inactive); in the assay with ACHN, > 100 µM (inactive); with CCRF-CEM, > 100 µM (inactive); in the assay on DU-145 it was > 100 µM (inactive); with HCT-116, > 100 µM (inactive); with HCT-15, over 100 µM. The GI50 in the assay on HOP-62, with MDA-MB-231, with MDA-MB-435, with MOLT-4, in the assay on NCI-H226 and in the assay on NCI-H23 was > 100 µM (inactive) each time. Besides, the GI50 in the assay with NCI/ADR-RES, in the assay with PC-3, in the assay with SF-295, in the assay on SNB-19, with SNB-75 and in the assay with SR was > 100 µM (inactive) in each case. Moreover, the GI50 with SW-620 was > 100 µM (inactive).

As for `Nc1nc(NNc2ccc(Cl)c(Cl)c2)cc(=O)[nH]1`, the GI50 in the assay on A549 is 45.7 µM (inactive); in the assay on ACHN it was 35.6 µM (inactive); in the assay on CCRF-CEM, 36.4 µM (inactive); with DU-145, 35.8 µM (inactive); in the assay with HCT-116 it was 52.4 µM (inactive); in the assay on HCT-15, 19.7 µM. Also, the GI50 with HOP-62 was 70.8 µM (inactive); in the assay on MDA-MB-231, 33.8 µM (inactive); with MDA-MB-435, 25.4 µM (inactive); with MOLT-4 it was 19.4 µM (inactive); in the assay with NCI-H226, 78.9 µM (inactive); with NCI-H23, 34 µM (inactive). For the same compound, the GI50 in the assay with NCI/ADR-RES is 47.5 µM (inactive); in the assay on PC-3 it was 34 µM (inactive); in the assay on SF-295, 54.1 µM (inactive); in the assay on SNB-19, 72.6 µM (inactive); in the assay with SR, 31.7 µM (inactive); in the assay on SW-620 it was 22.8 µM (inactive).

Consider `O=C(c1ccccc1)c1c2ccccn2c2cccc[n+]12`, for which the GI50 in the assay on A549 was 82.4 µM (inactive); in the assay with CCRF-CEM, > 100 µM (inactive); with DU-145, > 100 µM (inactive); with HCT-116, > 100 µM (inactive); with HCT-15 it was over 100 µM; with HOP-62 it was > 100 µM (inactive). Also, the GI50 in the assay on MDA-MB-231, in the assay with MDA-MB-435, in the assay on MOLT-4, in the assay on NCI-H226, in the assay on NCI/ADR-RES and in the assay with PC-3 was > 100 µM (inactive) each time. Also, the GI50 with SF-295, with SNB-75, in the assay on SR and in the assay with SW-620 was > 100 µM (inactive) throughout.

Regarding `Cc1cc2cc3c(cc2c(-c2ccc(N)cc2)n1)OCO3`, the GI50 is 74.1 µM (inactive) in the assay on A549; 39.5 µM (inactive) in the assay on ACHN; 28.5 µM (inactive) in the assay with CCRF-CEM; 49.9 µM (inactive) with DU-145; 31.6 µM (inactive) in the assay on HCT-116; 53 µM in the assay on HCT-15. In addition, the GI50 is 57.1 µM (inactive) in the assay with HOP-62; 13.7 µM (inactive) in the assay with MDA-MB-231; 76.6 µM (inactive) in the assay with MDA-MB-435; 13.8 µM (inactive) in the assay with MOLT-4; 61.2 µM (inactive) in the assay on NCI-H23; 42.5 µM (inactive) in the assay with NCI-H522. In addition, the GI50 in the assay on NCI/ADR-RES was 72.9 µM (inactive); with PC-3 it was 40.7 µM (inactive); in the assay on SF-295, 34.2 µM (inactive); in the assay with SNB-19 it was > 100 µM (inactive); in the assay with SR, 15.6 µM (inactive); in the assay on SW-620, 31.6 µM (inactive).

(Values after ChEMBL document CHEMBL1201862, “PubChem BioAssay data set” (2004).)
